Data published in patent US11744837B2, “Use of cortisol in assessment and prophylactic treatment of hypokalemia associated with glucocorticoid receptor modulator treatment of Cushing's syndrome patients” (Corcept Therapeutics, Inc., priority 2018, dated 2023).
Like-named read-outs stand apart in the source and are kept apart here.

Assays:
cortisol [1] = test: 24-hour urine cortisol during mifepristone treatment of Cushing's syndrome patients; format: in vivo, human
Procedure: (§1) Dosing Schedule Dosing was started with 300 mg of mifepristone once per day for 14 days. After 14 days, if no clinical improvement was seen but the drug was well tolerated, the dose of mifepristone was increased to 600 mg once per day. After 4 weeks of dosing at 600 mg once per day, if no clinical improvement was seen but the drug was well tolerated, the dose was increased to 900 mg once per day. Dose escalation was based on weight with the maximum dose no higher than 20 mg/kg/day. […] After 4 weeks of dosing at 900 mg once per day, if no clinical improvement was seen but the drug was well tolerated, the dose was increased to 1200 mg once per day. Study duration was 24 weeks.
(§2) Potassium levels were obtained on every subject at either screening or the pre-drug administration baseline visit, and then also at every scheduled post-baseline visit. Potassium levels post-baseline were therefore obtained as early as day 7 and through day 210 (week 30 was the last visit and was the 6 week follow-up visit). ACTH, and cortisol were measured at six visits (week 2 (day 14), week 6 (day 42), week 10 (day 70), week 16 (day 112), and week 24 (day 168) week 6 follow-up (day 210)).

[2] = test system: Cushing's syndrome patients; settings: cited from earlier work
healthy volunteers = test: Previous clinical studies in healthy volunteers: adverse events; format: in vivo, human
Excerpt: Hypokalemia and rash appear to be more common in subjects receiving mifepristone than in the control groups.

cortisol [3] = test: Total serum cortisol during mifepristone treatment of Cushing's syndrome patients; format: in vivo, human
Excerpt: (§3) The term “measuring the level,” in the context of cortisol, ACTH, mifepristone, or other compounds, refers to determining, detecting, or quantitating the amount, level, or concentration of, for example, cortisol, ACTH, mifepristone, or other compound in a sample obtained from a subject. Plasma or serum samples are often used for measuring ACTH or cortisol level.
(§4) The types of samples that are suitable for cortisol determination can be serum, plasma, saliva, urine, or any other biological fluid taken from a subject. In preferred embodiments, the sample is a serum sample, or is a plasma sample. The level of cortisol can be measured using various methods, including but not limited to, immunoassays, e.g., competitive immunoassay, radioimmunoassay (MA), immunofluorometric enzyme assay, and ELISA; competitive protein-binding assays; liquid chromatography (e.g., HPLC); and mass spectrometry, e.g., high-performance liquid chromatography/triple quadrupole-mass spectrometry (LC-MS/MS). In preferred embodiments, cortisol levels are measured using LC-MS/MS, such as performed by Quest Diagnostics (Secaucus, N.J. 07094).
Dosing Schedule Dosing was started with 300 mg of mifepristone once per day for 14 days. After 14 days, if no clinical improvement was seen but the drug was well tolerated, the dose of mifepristone was increased to 600 mg once per day. After 4 weeks of dosing at 600 mg once per day, if no clinical improvement was seen but the drug was well tolerated, the dose was increased to 900 mg once per day. Dose escalation was based on weight with the maximum dose no higher than 20 mg/kg/day. […]
Potassium levels were obtained on every subject at either screening or the pre-drug administration baseline visit, and then also at every scheduled post-baseline visit. […] ACTH, and cortisol were measured at six visits (week 2 (day 14), week 6 (day 42), week 10 (day 70), week 16 (day 112), and week 24 (day 168) week 6 follow-up (day 210)).

ACTH = ACTH levels during mifepristone treatment of Cushing's syndrome patients; format: in vivo, human
Excerpt: as §3
as §4, with “ACTH” for “cortisol”, “(LC-MS/MS). Commercial kits for measuring ACTH are readily available, e.g., from Mayo clinic (Test ID: ACTH), Siemens Healthcare Global (Immulite® 2000 ACTH assay), and Roche Molecular Diagnostics (Catalog No. 03255751190).” for “(LC-MS/MS).”, “a radioimmunoassay (RIA), most preferable a two-site MA,” for “LC-MS/MS,”
as §1, §2

[4] = test system: psychotic major depression (PMD) subjects; test: Double blind psychotic major depression (PMD) trials: hypokalemia; format: in vivo, human; settings: completed double blind PMD trials
Excerpt: (§5) Clinically meaningful hypokalemia (<3.1) has been reported in 16 of 821 (1.9%) mifepristone treated subjects (12 in completed double blind PMD trials, and 4 in a completed Alzheimer's trial), and in 5 of 626 (0.8%) placebo treated subjects in completed PMD trials.

[5] = test system: mifepristone treated subjects (PMD and Alzheimer's trials); test: Completed PMD and Alzheimer's trials together: clinically meaningful hypokalemia; format: in vivo, human; settings: 16 of 821 mifepristone treated subjects
Excerpt: as §5

[6] = test system: Cushing's syndrome patients; settings: in vivo
Procedure: The risk of experiencing at least one episode of hypokalemia (potassium level <3.5 mEq/L) after 7 to 14 Days of exposure to KORLYM (mifepristone) was evaluated using stepwise multivariable logistic regression and single-variable logistic regression models. The following independent factors were evaluated for potential association with hypokalemia based on the biology of the disease: total cortisol at Day 1, ACTH at Day 1, and potassium level at Day 1.
The risk of experiencing at least one episode of hypokalemia (potassium level <3.5 mmol/L) after 28 Days of exposure to KORLYM was evaluated using stepwise multivariable logistic regression and single-variable logistic regression models. The following independent factors were evaluated for potential association with hypokalemia based on the biology of the disease: total cortisol at Day 1 and Day 14 (cort_01 and cort_14), ACTH at Day 1 and Day 14 (ACTH_01 and ACTH_14), and potassium levels at Day 1 and Day 14 (K_01 and K_14).
Patients were defined to have severe/recurrent hypokalemia for this analysis if they had at least one value of potassium of 2.5 mmol/L or lower, or if they had recurrent hypokalemia (hypokalemia occurring during multiple visits after Day 14 visit).
The Cushing's syndrome study reported herein was conducted in accordance with the Declaration of Helsinki and Good Clinical Practice (GCP) according to International Conference on Harmonization (ICH) guidelines.
as §1
Serum electrolytes, including potassium, were measured regularly throughout the study period.
as §2

[7] = test system: subjects in an Alzheimer's study; test: Alzheimer's study: hypokalemia; format: in vivo, human
Excerpt: as §5

[8] = patients who did not experience hypokalemia
[9] = 43 subjects with Cushing's disease

## CC#C[C@]1(O)CC[C@H]2[C@@H]3CCC4=CC(=O)CCC4=C3[C@@H](c3ccc(N(C)C)cc3)C[C@@]21C [mifepristone, 11β-(4-dimethylaminophenyl)-17β-hydroxy-17α-(1-propynyl)-estra-4,9-dien-3-one]
Cortisol [1]; Day 42, Non-Hypokalemic (N 35)
  24 Hour Urine Cortisol (nmol/24 hr)/ACTH Ratio Visit Values, Mean ± SD: 7.9 ± 6.0 (35)
Cortisol [1]; Day 70, Non-Hypokalemic (N 30)
  24 Hour Urine Cortisol (nmol/24 hr)/ACTH Ratio Visit Values, Mean ± SD: 17.0 ± 32.7 (30)
Cortisol [1]; Day 112, Non-Hypokalemic (N 23)
  24 Hour Urine Cortisol (nmol/24 hr)/ACTH Ratio Visit Values, Mean ± SD: 9.6 ± 16.3 (23)
Cortisol [1]; patients experiencing hypokalemia
  ratios of 24-hour urine cortisol values divided by ACTH values: greater than 20
Cortisol [1]; [8]
  ratios of 24-hour urine cortisol values divided by ACTH values: less than 20
Cortisol [1]; patients who did not experience hypokalemia, at all times during mifepristone treatment
  24 hour urine cortisol levels: below 1700 nmol/24 hr
Cortisol [1]; patients who experienced hypokalemia
  24-hour urine cortisol levels: above 2000 nmol/24 hr
Cortisol [1]; patients who experienced hypokalemia, day 42
  change in 24-hour urine cortisol levels as compared to baseline: greater than 600 nmol/24 hr
[2]; of 43 Cushing's syndrome patients treated with mifepristone
  patients with serum potassium levels less than 3.5 mEq/L: 22
[2]; of the 22 of 43 patients with potassium <3.5 mEq/L
  patients with serum potassium levels less than 2.5 mEq/L (severe hypokalemia): 3
Healthy volunteers; mifepristone administered to healthy volunteers
  frequently reported adverse events: headache, gastrointestinal symptoms including diarrhea, nausea and vomiting, and rash
Healthy volunteers; subjects receiving mifepristone
  Hypokalemia and rash compared with the control groups: more common
Cortisol [3]; [9]
  change of serum cortisol during mifepristone treatment: increased to a smaller degree
Cortisol [3]; patients who did not experience hypokalemia, early on during mifepristone treatment (e.g., day 14 and/or day 42)
  total serum cortisol levels: below 1000 nmol/L
Cortisol [3]; patients who experienced hypokalemia, early on during mifepristone treatment (e.g., day 14 and day 42)
  total serum cortisol levels: above 1000 nmol/L
ACTH; [9]
  change of ACTH during mifepristone treatment: increased about two-fold
ACTH; Day 42, Hypokalemic (N 6)
  Ratio of ACTH Visit Change Values from Baseline per Baseline (ACTH_CHG/ACTH Baseline), Mean ± SD: 2.50 ± 0.61 (6)
ACTH; Day 168, Hypokalemic (N 5)
  Ratio of ACTH Visit Change Values from Baseline per Baseline (ACTH_CHG/ACTH Baseline), Mean ± SD: 3.30 ± 2.54 (5)
ACTH; [8]
  rise of ACTH levels following an initial increase in mifepristone dose (FIG. 1): about 25 pg/mL
[4]
  subjects with clinically meaningful hypokalemia (<3.1): 12
[5]
  Clinically meaningful hypokalemia (<3.1): 1.9%
[6]; both, human
  Severe/Recurrent Hypokalemia: 9 (20.0) n (%)
  developed hypokalemia on or after Day 28: 6.7%
  developed severe/recurrent hypokalemia on or after Day 28: 6.7%
  subjects with a Potassium value ≤3.5 mmol/L at any of the six visits: 21
  subjects with a Potassium value ≤3.5 mmol/L at any post-baseline visit: 23
[6]; both, human, 6 weeks
  Number with Hypokalemia (%) (Potassium ≤ 3.4 mEq/L): 7 (14%)
[6]; both, human, 8 weeks
  Number with Hypokalemia (%) (Potassium ≤ 3.4 mEq/L): 4 (8%)
[6]; both, human, 10 weeks
  Number with Hypokalemia (%) (Potassium ≤ 3.4 mEq/L): 4 (8%)
[6]; both, human, 12 weeks
  Number with Hypokalemia (%) (Potassium ≤ 3.4 mEq/L): 3 (6%)
  Number with Severe Hypokalemia (%) (Potassium ≤ 2.5 mEq/L): 1 (2%)
[6]; both, human, 16 weeks
  Number with Hypokalemia (%) (Potassium ≤ 3.4 mEq/L): 5 (10%)
  Number with Severe Hypokalemia (%) (Potassium ≤ 2.5 mEq/L): 1 (2%)
[6]; both, human, 20 weeks
  Number with Hypokalemia (%) (Potassium ≤ 3.4 mEq/L): 1 (2%)
[6]; both, human, 24 weeks
  Decreased potassium observed during at least one visit: about 30%
  Number with Hypokalemia (%) (Potassium ≤ 3.4 mEq/L): 4 (8%)
  developed hypokalemia after dosing with KORLYM: 42.9%
[6]; both, human, 30 weeks
  Number with Hypokalemia (%) (Potassium ≤ 3.4 mEq/L): 3 (6%)
  Number with Severe Hypokalemia (%) (Potassium ≤ 2.5 mEq/L): 1 (2%)
[6]; both, human, 1 day
  Number with Hypokalemia (%) (Potassium ≤ 3.4 mEq/L): 2 (4%)
[6]; both, human, 7 day
  Number with Hypokalemia (%) (Potassium ≤ 3.4 mEq/L): 2 (4%)
[6]; both, human, 14 day
  Number with Hypokalemia (%) (Potassium ≤ 3.4 mEq/L): 8 (16%)
  Number with Severe Hypokalemia (%) (Potassium ≤ 2.5 mEq/L): 1 (2%)
[6]; both, human, 14 days
  share of subjects with a Potassium value ≤3.5 mmol/L as early as day 14, all post-baseline values: 48%
  share of those subjects with a Potassium value ≤3.5 mmol/L as early as day 14: 38%
[6]; both, human, 28 day
  Number with Hypokalemia (%) (Potassium ≤ 3.4 mEq/L): 10 (20%)
[6]; both, human, 210 day
  Number of Subjects Hypokalemic <=3.5 mmol/L: 3
  Number of Subjects Non-Hypokalemic >3.5 mmol/L: 37
[6]
  patients with at least one potassium value of 2.5 mmol/L or lower: two
  severity of hypokalemia: generally mild to moderate
  subjects with a day 7 Potassium value ≤3.5 mmol/L: three
[7]; completed Alzheimer's trial
  subjects with clinically meaningful hypokalemia (<3.1): 4
[7]; out of 33 subjects, 300 mg per day of mifepristone for 16 weeks
  subjects with hypokalemia in the range of 2.8 to 3.5 mEq/L: 9
